Reference: patent US20080293699A1, “Inhibitors of thapsigargin-induced cell death” (priority 2007, published 2008)

Tested on: phospho-c-Jun
Assay: Immunoblotting of thapsigargin-induced c-Jun phosphorylation in CSM14.1 cells
Type: cell-based, rat
Conditions: immunoblotting with phospho-specific antibody, 10 μM, 25 μM hits
Source text: After confirming the pathway selectivity of compounds, additional downstream assays can be performed to map the specific signal transduction pathway inhibited by the compounds. In this regard, various antibody reagents are commercially available for assessing the status of the three major pathways known to be activated by ER stress: (1) PERK, (2) Ire1, and (3) ATF6 (Xu et al., J. Clinical Invest., 115:2656-2664, 2005). Immunoblotting experiments can be performed to assess the expression or phosphorylation (using phospho-specific antibodies) of marker proteins in these pathways. […] CSM 14.1 cells were cultured with DMSO or with 25 μM of hit compounds for two hours, followed by treatment of thapsigargin (15 μM). Cell lysates were prepared and analyzed by SDS-PAGE/immunoblotting using antibodies specific for phospho-c-Jun, phospho-eIF2α, phospho-p38 MAPK, and tubulin (a loading control). CSM14.1 cells were cultured with either DMSO or one of the active compounds at 1, 5, and 10 μM, followed two hours later by 15 μM TG. After two hrs, cell lysates were prepared, normalized for protein content, and either analyzed by SDS-PAGE/immunoblotting using anti-p38-MAPK pan-reactive antibody or phospho-specific antibody with ECL-based detection, followed by densitometry analysis of x-ray films, normalizing phosphor-p38 MAPK relative to total p38 MAPK, or analyzed using a meso-scale instrument from MSD and a procedure in which total p38 MAPK is captured on plates, and the relative amounts of phosphorylated protein were determined using phospho-specific antibody (MSD catalog #K15112D1). […] Suppression of p38 MAPK and c-Jun phosphorylation was dose-dependent, and could not be explained by a decline in total levels of these proteins. […] Proteolytic processing of ATF6 was also not inhibited by our hit compounds. […] Screens of other libraries (such as the NIH compound collection) may yield cytoprotective compounds with different mechanisms.
1) CSM14.1 cells were plated at a density of 2×10^5 cells/well at 6 well dish (Greiner Bio one) in DMEM containing 2% FBS and antibiotics.
2) After overnight incubation, cells were treated by DMSO (0.5%) or compounds (25 μM) for two hours, followed by TG (15 uM) treatment.
3) After two hours, cells were lyzed in 250 uL of lysis buffer and subjected to protein concentration decision, and to SDS PAGE/Western blotting using antibodies specific for phospho p38 MAPK (Cell signaling 9211), p38 MAPK (Santa Cruz-C20), phospho c-Jun (Cell signaling 9164), c-Jun (Santa Cruz-SC 1694), phospho eIF2α (Cell signaling 3597) and α-tubulin.
CSM 14.1 cells were cultured with DMSO or with 25 μM of hit compounds for two hours followed by treatment with thapsigargin (15 μM). Cell lysates were prepared and analyzed by SDS-PAGE/immunoblotting using antibodies specific for: c-Jun, phosphor-c-Jun (ser 73), eIF2a, phosphor-eIF2a (ser 51), p38 MAPK, phosphor-p38 MAPK (Thr180/Tyr182), ATF-6, CHOP and tubulin (loading control). ER stress-induced activation of C-Jun and p38 MAPK is suppressed by the 11 hit compounds.
CSM cells were treated with two compounds at increasing doses. Pre-incubation time, thapsigargin treatment, cell extract preparation and immunoblotting protocols were as described previously.

Compound | Thapsigargin-induced phosphorylation of c-Jun
CCN(CC)c1ccc(C2Nc3ccccc3NC3=C2C(=O)CC(c2ccccc2)C3)cc1 (centres unmarked) [Compound 5962123, 6-(4-diethylaminophenyl)-9-phenyl-5,6,8,9,10,11-hexahydrobenzo[c][1,5]benzodiazepin-7-one] | inhibits
COc1ccc(C2CC(=O)C3=C(C2)Nc2ccccc2NC3c2ccccc2C(F)(F)F)cc1OC (centres unmarked) [Compound 6237735] | dose-dependent decrease
